The subject of data set [1] is human keratinocytes. Put plainly: Ozone-induced lipid hydroperoxides (DCFH-DA fluorescence) in monolayer culture of human keratinocytes. Type of data set: cell-based. To be noted: for % fluorescence observed ± SEM in the presence of CMC, relative to the unprotected controls: 24 h pretreatment with CMC 0.5 mg/ml, CMC 1 mg/ml in PBS during exposure (b102 says 200 μM), controls = 100%, n=4. The protocol: Ozone has the capacity to oxidize cell constituents, especially generating carbonylated proteins and lipid hydroperoxides. Quantification of the lipid hydroperoxides is one means of measuring the oxidative stress induced by exposing skin tissue to this pollutant. A decrease in their content indicates a protective effect. The study was performed on a monolayer culture of human keratinocytes. The cells are inoculated on D-3 into 48-well dishes at a rate of 25 000 cells/cm^2 in 500 μl of culture medium. The incubations are performed at 37° C., 5% CO2 under a humid atmosphere. The cells were pretreated for 24 hours with CMC (0.5 mg/ml, half-maximal dose that is nontoxic to the cells, dissolved in the culture medium). Hydroperoxides constitute an intracellular stress marker. They are detected and quantified by means of a fluorescence technique (Lebel C. P., Ischiropoulos H. and Bondy S. C. (1992) Evaluation of the probe 2,7-dichlorofluorescin as an indicator of Reactive Oxygen Species formation and oxidative stress. Chem. Res. Toxicol.; 5: 227-231). In the presence of intracellular hydroperoxides and peroxidases, DCFH is oxidized to fluorescent 2,7-dichlorofluorescein (DCF). The cells, pretreated for 24 hours with CMC, are then washed with PBS buffer and placed in contact for 30 minutes with a solution of DCFH-DA (500 μl/well), prepared in the culture medium to a concentration of 320 μM. The cells are again rinsed with PBS buffer and then placed in contact with a CMC solution at a concentration of 1 mg/ml in PBS (100 μl/well). They are then exposed to ozone (1 ppm), under a humid atmosphere, in an incubator set at 37° C. The formation of fluorescent DCF (excitation filter at 485 nm and emission filter at 530 nm) resulting from the production of hydroperoxides is measured after different times of exposure to ozone: 0, 5, 10 and 20 minutes. Toxicity of ozone toward human keratinocytes in culture, in the absence and presence of S-carboxymethylcysteine at a concentration of 200 μM, as a function of the exposure time (n=4). For each time, the fluorescence values of the unprotected controls are set at 100%. The results in the presence of CMC are then expressed relative to this control value. […] This protection is at a maximum from 5 minutes of exposure onward (67.7% drop in induced stress). It is still significant after 20 minutes of exposure (53.5% drop in induced stress) relative to the unprotected controls.

Data set [2] relates to human keratinocytes. The experiment in a line: Toxicity of CMC to the keratinocytes (nontoxic dose). Type of data set: cell-based. To be noted: dissolved in the culture medium, 24 hours. As for the experimental part:
The study was performed on a monolayer culture of human keratinocytes. The cells are inoculated on D-3 into 48-well dishes at a rate of 25 000 cells/cm^2 in 500 μl of culture medium. The incubations are performed at 37° C., 5% CO2 under a humid atmosphere.
The cells were pretreated for 24 hours with CMC (0.5 mg/ml, half-maximal dose that is nontoxic to the cells, dissolved in the culture medium).

Results on one compound are retold here after US20040037856A1, “Use of compounds containing a thio-ether, sulphoxide or sulphone function as cosmetic anti-pollution agent” (priority 2000, published 2004).

Turning to `N[C@@H](CSCC(=O)O)C(=O)O` [CMC, S-carboxymethylcysteine], the “% fluorescence observed ± SEM in the presence of CMC, relative to the unprotected controls” value in the data set with human keratinocytes [1] (5 min. of contact with ozone (1 ppm)) came to 32.4 ± 5.9%; with human keratinocytes [1] (10 min. of contact with ozone (1 ppm)), 33.7 ± 5.0%; in the data set on human keratinocytes [1] (20 min. of contact with ozone (1 ppm)) it was 46.5 ± 8.5%. The “drop in induced stress relative to the unprotected controls” value turned out to be 67.7% in the data set with human keratinocytes [1] (5 minutes of exposure to ozone) and 53.5% in the data set on human keratinocytes [1] (20 minutes of exposure to ozone). Further, the “protective effect against the effect induced by ozone (oxidative stress)” value with human keratinocytes [1] (human keratinocytes in vitro, ozone exposure) was “highly significant protective effect”. Moreover, in the data set with human keratinocytes [2], the “half-maximal dose that is nontoxic to the cells” value was 0.5 mg/mL.
